The results in this text go back to US9029403B2, “Treatment of ovarian cancer with benzylidenebenzohydrazides” (Memorial Sloan-Kettering Cancer Center, priority 2011, dated 2015).

The test system of this series is NSG mice. As to the kind of experiment: In vivo toxicity in NSG mice. The settings on record: intraperitoneal, 1, 2.5, 5, 10, 20 or 40 mg/kg, once or three times a week for 4 weeks. As for the experimental part:
The compound designated example 10 above was tested in vivo for toxicity in NSG mice. As used herein, NSG and NSG mice mean the NOD scid gamma (NSG) mice, or an equivalent, available from The Jackson Laboratory and which are the NOD.Cg-Prkdc^scid I12rg^tm1Wj1/SzJ JAX® Mice strain. The NSG mice were injected intraperitoneally with 1, 2.5, 5, 10, 20 or 40 mg/kg of the compound designated example 10 above for once or three times a week for 4 weeks.

With `Cc1ccc(C(=O)N/N=C/c2c(O)ccc3ccccc23)cn1` [example 10], the overt toxicity entry is recorded as “no overt toxicity”.
